Entries after “also recorded” stand apart in the source; their conditions may differ.
Columns and labels:
[1] = test system: rat hippocampal neurons; test: Mitochondrial motility assay in axons; format: cell-based; settings: 50 μM
Source text: Mitochondrial motility assay: Primary hippocampal neuronal cultures were co-transfected with mitochondrial targeted GFP (mitoGFP) and mCherry-tagged synaptophysin (mCherrySynaptophysin) to allow for the live identification of mitochondria in axons.
To test if kinetin decreases motility we examined the mobility of axonal mitochondria in hippocampal neurons. Primary hippocampal neuronal cultures were co-transfected with mitoGFP and mCherry-tagged Synaptophysin (mCherrySynaptophysin) to allow for the live identification of mitochondria in axons. […] To test the PINK1 dependency of this process, we treated control mouse C57 (PINK1 wildtype) and PINK1 knockout derived hippocampal neurons with kinetin or 9MK and imaged their mitochondria.

[2] = test system: SH-SY5Y cells with PINK1-silencing shRNA; test: H2O2 induced apoptosis, Annexin V / PI FACS assay, PINK1-silencing shRNA; format: cell-based, human; settings: PINK1-silencing shRNA lentivirus; 50 μM 96 hours, 400 μM H2O2
Method: Apoptosis assays and PINK1 shRNA: SH-SY5Y cells (ATCC) were cultured in 1:1 mix of F12K and DMEM supplemented with 20% FBS. PINK1 shRNA lentivirus were produced using a pLKO.1 based shRNA (Sigma) by contransfection with Δ8.9 and pMGD2 vectors in HEK293T cells. SH-SY5Y cells were infected with lentivirus followed by selection with puromycin ([…]). The indicated cells were plated in 6-well plates at about 500,000 cells/well, pretreated with 50 μM of the indicated drug or DMSO for 96 hours followed by 400 μM H2O2 treatment. Subsequently, cells were stained with Annexin V-FITC and PI and analyzed (FACS Diva) on a FACS LSRII Cytometer ([…]) Apoptosis was calculated as the difference between H2O2 treated samples and the respective control.
Overexpression of PINK1 in neuronal cells (e.g. dopaminergic (DA)) promotes survival in response to oxidative stress and other mitochondrial toxins^7. Before testing the effects of kinetin on apoptosis, we treated DA neurons with 50 μM of either kinetin or adenine and measured cell density after 10 days. […] SH-SY5Y cells were treated with 50 μM kinetin, adenine or DMSO for 96 hours, followed by 400 μM H2O2 treatment for additional 24 hours. Using a cytometry-based FACS assay involving cellular annexin V and propidium iodide staining, we determined the percentage of apoptotic cells after treatment with DMSO, adenine or kinetin.

[3] = test system: SH-SY5Y; format: in vitro ADME; settings: not told
Source text: We included negative control analogs of Kinetin which prevent metabolism.

[4] = test system: Parkin and Bcl-xL; test: Phosphorylation level of Parkin and Bcl-xL in neuronal cell lines; format: cell-based
Source text: (§1) Kinetin mediated PINK1 activity amplification was characterized using a variety of cell lines and primary cells. The HL-1 cell line, an established cardiomyocyte cell line that retains characteristic properties of differentiated cardiac tissue (Claycomb et al., 1998) as well as freshly isolated cardiomyocytes from PINK1wt or PINK1−/− mice. Infected HL-1 cells with a lentivirus expressing shRNA targeting PINK1, were developed to generate a PINK1 knockdown control. To analyze the amplification of PINK1 kinase activity we analyzed the phosphorylation level of Bcl-xL, Mfn2, and Parkin following treatment of PINK1wt and PINK1 knockdown or −/− cell lines with DMSO or 25 μM adenine, kinetin or 9-methyl kinetin (9MK negative control) and fCCCP for three to twenty-four hours following published protocols (Arena et al., 2013; Chen and Dorn, 2013; Kondapalli et al., 2012). […] Accordingly, PINK1wt expressing cells see an increase in PINK1 dependent phosphorylation, but not in those cells where PINK1 has been depleted.

[5] = test system: PINK1wt HL-1 cells or cardiomyocytes derived from PINK1wt mice; test: Apoptosis of cardiomyocytes after mitochondrial toxins (caspase 3/7, TUNEL, Annexin V); format: cell-based; settings: 25 μM, versus control compounds or PINK1 knockdown or −/− cells
Source text: as §1
The amount of early apoptosis was measured using caspase 3/7 cleavage activity and later stage apoptosis by measuring the number of Terminal deoxynucleotidyl transferase dUTP nick end labeling (TUNEL) positive cells and Annexin V binding by FACS analysis following treatment with mitochondrial toxins. […]

[6] = test system: PINK1wt mice; test: Heart health and performance in mice treated from birth; format: in vivo
Method: PINK1 expression is protective in several mouse models of heart failure. PINK1wt expression will block pathological hypertrophy, increase heart fractional shortening, and prevent ischemia induced death of heart tissue. To assay the effect of kinetin PINK1 wt or PINK1−/− mice were treated with vehicle, adenine or kinetin from birth following published protocols for administration of kinetin (Hims et al., 2007; Shetty et al., 2011). The mice were sacrificed and whole hearts analyzed, and isolated cardiomyocytes from mice at appropriate time periods (e.g. 2 and 6 months). O2 consumption, mitochondrial integrity (mtDNA abundance, mitochondrial capacity and JC-1 fluorescence) caspase 3/7 cleavage activity and TUNEL staining were measured to assess the health of these tissues. According to published results (Billia et al., 2011; Chen and Dorn, 2013), PINK1 activity is essential for normal 02 consumption and maintenance of mitochondrial integrity. Decreased 02 consumption and mitochondrial integrity in PINK1−/− mice was compared to PINK1wt mice. […] Additionally, caspase 3/7 cleavage activity and TUNEL staining of the left ventricle were increased in PINK1−/− mice derived cardiomyocytes compared to PINK1wt.
In addition to these analyses we analyzed the performance of the heart in whole animals. We utilized the same procedure as above and treated either PINK1wt or PINK1−/− mice with vehicle, adenine or kinetin from birth following published protocols for administration of kinetin (Hims et al., 2007; Shetty et al., 2011). […] These characteristics of pathological hypertrophy indicate heart failure in the PINK1−/− mice will not increase as dramatically in PINK1wt mice (Billia et al., 2011). […] These experiments indicate that amplification of PINK1 activity by treatment with kinetin can block age-induced loss in heart function.

[7] = test system: PINK1wt mice; test: Induced myocardial infarction model; format: in vivo; settings: two weeks dosing
Method: Utilizing mice dosed with kinetin, adenine or vehicle for two weeks, we induced myocardial infarction by ligating the left anterior descending artery at the level of the left atrial appendage (Wang et al., 2006) or sham surgery. Following infarct for 24 or 72 hours, we sacrificed the mice and analyzed the heart by TUNEL staining as cardiomyocytes are susceptible to cell death following infarct. […] These experiments replicate our results in neurons in which kinetin treatment will block apoptosis in response to a number of cellular stressors.

## c1coc(CNc2ncnc3[nH]cnc23)c1 [kinetin]
[1]; 48 hours pre-treatment
  mitochondrial movement / motility: potently and specifically inhibited
[1]; 48 hours, retrograde direction
  velocity of mitochondria that remain in motion: slows; also recorded: decrease in the velocity of mitochondria in the retrograde direction
[2]
  total amount of apoptotic cells: no kinetin effect
[3]
  membrane impermeable metabolite after incubation: presence of a membrane impermeable metabolite
[4]
  phosphorylation level of Parkin and Bcl-xL: significant increase
[5]
  apoptosis levels: significantly lower levels
[6]; HBW ratio, cross sectional area, extracellular matrix
  age induced pathological hypertrophy: reduces this age induced pathological hypertrophy
[6]; six month old, echocardiography
  fractional shortening: still higher fractional shortening
[6]; treated from birth
  O2 consumption and mitochondrial integrity: Improved values
  TUNEL staining of the left ventricle: further reduced TUNEL staining
[7]; 24 or 72 hours after infarct
  TUNEL positive cells in the peri-infarct area: significant decrease in TUNEL positive cells
[7]; post-infarct
  scar size and level of collagen deposition: significant decrease in the scar size and the level of collagen deposition

— US11427588B2, “Compositions and methods for treating neurodegenerative diseases and cardiomyopathy” (THE REGENTS OF THE UNIVERSITY OF CALIFORNIA, priority 2013, dated 2022)
